According to US12214059B2, “Cleavable radioligands for targeting cell surface receptors and uses thereof” (Full-Life Te[…] Limited, priority 2021, dated 2025):

What was measured:
[1] = tested on: PC-3 PIP tumor-bearing mice; assay: Biodistribution study in SCID mice bearing PC3-PIP tumor; format: in vivo, mouse; settings: PC3 PIP tumor-bearing mice
Experimental: Biodistribution Study in SCID Mice Bearing PC3-PIP Tumor
Severe combined immunodeficient (ICR-SCID) mice from the Institute of Cancer Research (Taconic Farms, Germantown, NY) were utilized for these studies. […] These mice received bilateral subcutaneous rear flank injections of approximately 10×10^6 PC-3 PIP cells (prostate cancer cell PC-3 stably expressing human PSMA) suspended in 100 μL of 0.9% NaCl. […] The tissues and organs were weighed, counted in a PerkinElmer Wizard 3 automatic γ counter, and the percent injected dose (% ID) and % ID/g of each organ or tissue were calculated, as shown in Tables 5-24 and FIG. 1 and FIG. 2.

LNCap tumor-bearing mice = assay: Biodistribution study in CB-17 SCID mice bearing LNCap tumor; format: in vivo, mouse; settings: LNCap tumor-bearing mice
Experimental: Biodistribution Study in CB-17 SCID Mice Bearing LNCap Tumor
All animal care and experimental procedure were performed by following the animal protocols approved by the ethics committee of China Institute of Radiation Protection. The CB-17 SCID mice (Charles River, Beijing) were utilized for these studies. […] These mice received subcutaneous rear flank injections of approximately 4×10^6 LNCap cells suspended in 200 μL of phosphate-buffered saline (PBS) and Matrigel (Corning) (1/1).

[2] = Ex-vivo mouse plasma stability study of ^177Lu-labeled compounds; format: in vitro ADME; settings: 37° C.
Experimental: Plasma Stability Study (Mouse and Human)
Mouse blood was collected via cardiac puncture of the left ventricle. Blood was placed into heparin-coated microfuge tubes and then centrifuged at 3500 rpm for 10 min to separate plasma for stability studies. Human plasma was purchased directly.
At each time point (0, 1, 2, 4, 24, 48 72 h), an aliquot of 25 μL sample was taken and mixed with 100 μL methanol containing 1% formic acid, vertex for 30-60 sec, then centrifuged at 20000 rpm for 10 min. 100 μL supernatant was collected and diluted with 40 μL H2O. 100 μL of the resulting mixture was injected to radio-HPLC for stability assessment, as shown examples FIG. 2 and FIG. 3. The best-fit T½ value of test compounds were calculated by fitting the data with linear or non-linear regression using GraphPad Prism 8.0.1.

PSMA = target: T1, PSMA (Homo sapiens, UniProt Q04609); assay: Cell-based radioligand competitive binding assay (^125I-C-8, LNCaP cells); settings: for Relative Binding Affinity: C-1 = 1.00
T1 construct: host or cells: LNCaP cells
T1 sequence (Q04609 whole entry): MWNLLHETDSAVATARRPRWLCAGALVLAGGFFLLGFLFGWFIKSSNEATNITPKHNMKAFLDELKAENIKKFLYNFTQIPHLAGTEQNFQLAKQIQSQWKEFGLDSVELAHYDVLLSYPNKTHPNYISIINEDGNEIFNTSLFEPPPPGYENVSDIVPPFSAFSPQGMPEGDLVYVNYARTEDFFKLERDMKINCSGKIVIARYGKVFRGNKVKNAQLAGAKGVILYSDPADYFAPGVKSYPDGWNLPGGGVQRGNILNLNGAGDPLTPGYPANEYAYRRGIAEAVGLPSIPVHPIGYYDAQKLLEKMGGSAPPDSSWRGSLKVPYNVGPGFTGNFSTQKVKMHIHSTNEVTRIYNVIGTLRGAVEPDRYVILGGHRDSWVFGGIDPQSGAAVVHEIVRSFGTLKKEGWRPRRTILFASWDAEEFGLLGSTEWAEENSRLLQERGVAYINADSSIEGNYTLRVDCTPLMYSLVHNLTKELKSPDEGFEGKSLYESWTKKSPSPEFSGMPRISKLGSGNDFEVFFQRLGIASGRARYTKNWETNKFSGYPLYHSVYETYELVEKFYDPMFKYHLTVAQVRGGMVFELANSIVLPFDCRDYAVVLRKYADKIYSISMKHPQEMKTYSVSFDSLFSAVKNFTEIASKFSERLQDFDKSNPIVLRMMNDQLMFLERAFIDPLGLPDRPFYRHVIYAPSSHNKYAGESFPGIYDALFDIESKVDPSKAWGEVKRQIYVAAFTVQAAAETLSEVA
Experimental: The culture medium was replaced with fresh medium every 2-3 days. Experiments were performed with cells at 70-80% confluence.
The final volume in each well was maintained at 200 μL and insufficient volume was adjusted by the binding buffer.

O=C(O)CC[C@H](NC(=O)N[C@@H](CCCCNC(=O)[C@H](Cc1ccc2ccccc2c1)NC(=O)C1CCC(CNC(=O)CN2CCN(CC(=O)O)CCN(CC(=O)O)CCN(CC(=O)O)CC2)CC1)C(=O)O)C(=O)O (stereo partly drawn) [Example C-1, (((S)-1-carboxy-5-((S)-3-(naphthalen-2-yl)-2-((1r,4S)-4-((2-(4,7,10-tris(carboxymethyl)-1,4,7,10-tetraazacyclododecan-1-yl)acetamido)methyl)cyclohexane-1-carboxamido)propanamido)pentyl)carbamoyl)-L-glutamic acid tetra(trifluoroacetic acid), reference compound]
T/K at 4 h (tumor uptake/kidney uptake) ([1]; 4 h): 7.0
T at 24 h (tumor uptake) ([1]; 24 h): 10.4
T/K at 24 h (tumor uptake/kidney uptake) ([1]; 24 h): 57
T at 96 h (tumor uptake) ([1]; 96 h): 7.3
T/K at 96 h (tumor uptake/kidney uptake) ([1]; 96 h): 182
T/K at 4 h (tumor uptake/kidney uptake) (LNCap tumor-bearing mice; 4 h): 2.52
T at 24 h (tumor uptake) (LNCap tumor-bearing mice; 24 h): 10.0
T/K at 24 h (tumor uptake/kidney uptake) (LNCap tumor-bearing mice; 24 h): 7.04
T at 96 h (tumor uptake) (LNCap tumor-bearing mice; 96 h): 10.1
T/K at 96 h (tumor uptake/kidney uptake), *value at 72 h (LNCap tumor-bearing mice; value at 72 h): 15.5*
% Remaining 0 min ([2]; 0 min): 100%
% Remaining 1 h ([2]; 1 h): 100%
% Remaining 4 h ([2]; 4 h): 100%
% Remaining 24 h ([2]; 24 h): 100%
% Remaining 48 h ([2]; 48 h): 100%
% Remaining 72 h ([2]; 72 h): 100%
T½ (h) ([2]; * = value obtained using nonlinear regression): Stable
Relative Binding Affinity (PSMA; based on the mean value of the IC50 number): 1.00
LogIC50 Mean (PSMA; log10 of IC50 (negative values), nonlin fit, LNCaP cells, ^125I-C-8 radioligand): −8.544
IC50 (PSMA; nonlin fit, LNCaP cells, ^125I-C-8 radioligand, scientific notation, unit inferred): 2.86 nM
Relative Binding Affinity (PSMA; relative): 1.00
